{"source": "patent US20240148745A1", "about": "“COMPOUNDS FOR USE IN PROGRESSIVE MULTIPLE SCLEROSIS” (FONDAZIONE CENTRO SAN RAFFAELE, priority 2021, published 2024)", "key": {"[1]": {"system": "double fluorescence CG4 cell line (rat OPC line)", "assay": "Toxicity assay (cell density) on double fluorescence CG4 line", "type": "cell-based", "settings": "1 and 10 microM, viability vs basal condition", "text": "Primary validation on CG4 line toxicity and differentiation. An innovative OPC line was developed for fast and reliable high content screening (HCS) of small compounds inducing oligodendrocyte differentiation. The line was genetically engineered by lentiviral transduction of rat CG4 cells (PubMed=1613821; DOI=10.1002/jnr.490310125; Louis J. C., Magal E., Muir D., Manthorpe M., Varon S.; CG-4, a new bipotential glial cell line from rat brain, is capable of differentiating in vitro into either mature oligodendrocytes or type-2 astrocytes. J. Neurosci. Res. 31:193-204(1992) to express mCherry fluorescent reporter (Evercooren, Anne & Avellana-Adalid, V. & Vitry, Sandrine & Nait-Oumesmar, Brahim & Lachapelle, Francois. (1997). Expansion of Oligodendrocyte Progenitors for Myelin Repair. 10.1007/978-1-4615-5949-8_21) in mature oligodendrocytes only, and EGFP at all stage of the oligodendroglial lineage: both the generation of mature oligodendrocytes (wmNl-mCherry) and the morphological changes associated with differentiation (CMV-EGFP) can be therefore monitored in a single assay. mCherry expression occurred only in O4+/GalC+ differentiated oligodendrocytes and GFP was ubiquitously expressed at all developmental stages. […]\nCompounds (272) were tested at 1 μM, using a double fluorescence CG4 cell line (rat OPC line), 9 cis-retinoic acid (1 μM) served as a positive control."}, "[2]": {"system": "neonatal mouse oligodendrocyte progenitor cells", "assay": "MTT metabolic activity / toxicity assay on neonatal mouse OPCs", "type": "cell-based", "settings": "1 and 10 microM, viability vs DMSO", "description": "Purified oligodendrocyte progenitor cells (OPC) obtained from neonatal mouse primary mixed glial cultures^25 were plated at the density of 6*10^4 cells/cm^2 into poly-L-lysine-coated 96 well plates. One day after plating, the cells were incubated with or without drugs (10, 1 and 0.1 μM) in DMSO (0.001% vehicle) for 48 hours. Compounds were screened for their ability to reduce [3-(4,5-dimethylthiazol-2-yl)-2,5-diphenyltetrazolium bromide (MTT)] using an automated microplate reader (Bio-rad, Hercules, CA, USA), as previously described.^25 MTT (0.25 mg/ml, Sigma-Aldrich, St Louis, MO) was added to the culture medium during the final 4 hours of incubation.\nToxicity of the full list of drugs (274) at 10 μM have been evaluated on neonatal mouse oligodendrocyte progenitor cells via metabolic activity by MTT. First, drugs able to reduce OPC viability were selected, identifying 90 compounds with a cytotoxic effect defined by the Efficacy Ratio ER (absorbance of drug/absorbance of vehicle; PMID: 28387380) (ER≤0.4) which have not been further investigated—and 44 drugs inhibiting OPC metabolism at lower level (0.5<ER<0.8)—which were analyzed in the next experimental setting. As a result, 90 compounds were cytotoxic, 44 compounds with low toxicity were retested at 1 and 0.1 μM, 140 compounds (ER>0.8) were non-toxic and were re-tested."}}, "data": [{"smiles": "O=C(N[C@@H]1CC[C@@H](c2cccc(F)c2F)CN(CC(F)(F)F)C1=O)N1CCC(n2c(=O)[nH]c3ncccc32)CC1", "note": "[Telcagepant]", "values": [{"measurement": "cytotoxicity on CG4 line", "setting": "[1]", "result": "not toxic on oligodendrocytes"}, {"measurement": "cytotoxicity on neonatal mouse OPCs", "setting": "[2]", "result": "not toxic on oligodendrocytes"}]}]}
